# Tests used:
# Experiment in all cases: cells
# Format in all cases: functional, cell-based, Homo sapiens
# KYSE-450 = conditions: Homo sapiens, KYSE-450;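 further: cell growth inhibition measured by a viability assay in human KYSE-450 cells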
# Description: SANGER: Inhibition of human KYSE-450 cell growth in a cell viability assay.
# Kasumi 1 = conditions: Homo sapiens, Kasumi 1;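 further: growth inhibition of human Kasumi-1 cells, read out by a cell viability assay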
# Description: SANGER: Inhibition of human KASUMI-1 cell growth in a cell viability assay.
# NCI-H1755 = conditions: Homo sapiens, NCI-H1755;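 further: cell viability readout used to measure growth inhibition of NCI-H1755 cells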
# Description: SANGER: Inhibition of human NCI-H1755 cell growth in a cell viability assay.
# COLO-792 = conditions: Homo sapiens, COLO-792
# Description: SANGER: Inhibition of human COLO-792 cell growth in a cell viability assay.
# MDA-MB-453 = conditions: Homo sapiens, MDA-MB-453
# Description: SANGER: Inhibition of human MDA-MB-453 cell growth in a cell viability assay.
# A-431 = conditions: Homo sapiens, A-431;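 further: growth inhibition of A-431 cells, determined with a cell viability read-out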
# Description: SANGER: Inhibition of human A431 cell growth in a cell viability assay.
# MDA-MB-415 = conditions: Homo sapiens, MDA-MB-415
# DoTc2-4510 = conditions: Homo sapiens, DoTc2-4510
# DK-MG = conditions: Homo sapiens, DK-MG;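 further: growth inhibition of DK-MG cells, read out with a cell viability assay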
# Description: SANGER: Inhibition of human DK-MG cell growth in a cell viability assay.
# NCI-H520 = conditions: Homo sapiens, NCI-H520;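 further: growth inhibition of NCI-H520 cells, measured by a cell viability assay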
# Description: SANGER: Inhibition of human NCI-H520 cell growth in a cell viability assay.
# MFE-280 = conditions: Homo sapiens, MFE-280;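 further: growth inhibition of MFE-280 cells, determined with a cell viability readout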
# Description: SANGER: Inhibition of human MFE-280 cell growth in a cell viability assay.
# MDA-MB-231 = conditions: Homo sapiens, MDA-MB-231
# Description: SANGER: Inhibition of human MDA-MB-231 cell growth in a cell viability assay.
# NCI-H2170 = conditions: Homo sapiens, NCI-H2170;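 further: cell viability assay measuring growth inhibition of human NCI-H2170 cancer cells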
# Description: SANGER: Inhibition of human NCI-H2170 cell growth in a cell viability assay.
# HEC-1 = conditions: Homo sapiens, HEC-1;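 further: growth inhibition of the cell line, read out with a cell viability assay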
# Description: SANGER: Inhibition of human HEC-1 cell growth in a cell viability assay.
# NCI-H661 = conditions: Homo sapiens, NCI-H661;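 further: cell viability assay read-out, IC50 being the concentration that inhibits growth of the cells by half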
# Description: SANGER: Inhibition of human NCI-H661 cell growth in a cell viability assay.
# LCLC-97TM1 = conditions: Homo sapiens, LCLC-97TM1;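 further: cell viability assay measuring growth inhibition of human LCLC-97TM1 cells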
# Description: SANGER: Inhibition of human LCLC-97TM1 cell growth in a cell viability assay.
# G-361 = conditions: Homo sapiens, G-361
# NCI-H358 = conditions: Homo sapiens, NCI-H358;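 further: growth inhibition of NCI-H358 human cells, read out with a cell viability assay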
# Description: SANGER: Inhibition of human NCI-H358 cell growth in a cell viability assay.
# CAMA-1 = conditions: Homo sapiens, CAMA-1;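 further: growth inhibition of CAMA-1 cells, read out with a cell viability assay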
# Description: SANGER: Inhibition of human CAMA-1 cell growth in a cell viability assay.
# EFO-27 = conditions: Homo sapiens, EFO-27;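 further: growth inhibition of EFO-27 cells, read out with a cell viability assay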
# Description: SANGER: Inhibition of human EFO-27 cell growth in a cell viability assay.
# SCC-4 = conditions: Homo sapiens, SCC-4;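 further: growth inhibition of human SCC-4 cells, read out as cell viability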
# Description: SANGER: Inhibition of human SCC-4 cell growth in a cell viability assay.
# YAPC = conditions: Homo sapiens, YAPC;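 further: growth inhibition of YAPC cells, measured with a cell viability assay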
# Description: SANGER: Inhibition of human YAPC cell growth in a cell viability assay.
# FaDu = conditions: Homo sapiens, FaDu;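 further: cell viability readout of growth inhibition in FaDu cells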
# Description: SANGER: Inhibition of human FADU cell growth in a cell viability assay.
# CAL-27 = conditions: Homo sapiens, CAL-27;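 further: Viability-based readout, IC50 reflecting inhibition of CAL-27 cell growth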
# Description: SANGER: Inhibition of human CAL-27 cell growth in a cell viability assay.
# COLO-680N = conditions: Homo sapiens, COLO-680N;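 further: cell viability assay used to measure inhibition of COLO-680N cell growth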
# Description: SANGER: Inhibition of human COLO-680N cell growth in a cell viability assay.
# HCC70 = conditions: Homo sapiens, HCC70;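 further: cell viability assay measuring how strongly the compound suppresses proliferation of HCC70 cells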
# Description: SANGER: Inhibition of human HCC70 cell growth in a cell viability assay.
# CHL-1 = conditions: Homo sapiens, CHL-1;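 further: cell growth inhibition, read out with a cell viability assay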
# Description: SANGER: Inhibition of human CHL-1 cell growth in a cell viability assay.
# HCC38 = conditions: Homo sapiens, HCC38;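 further: cell viability assay on the human HCC38 cell line, with IC50 marking the concentration that inhibits cell growth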
# Description: SANGER: Inhibition of human HCC38 cell growth in a cell viability assay.
# OVCAR-3 = conditions: Homo sapiens, OVCAR-3;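 further: growth inhibition of human OVCAR-3 cells, determined by a cell viability assay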
# Description: SANGER: Inhibition of human OVCAR-3 cell growth in a cell viability assay.
# HOS = conditions: Homo sapiens, HOS;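 further: growth inhibition of human HOS cells, read out with a cell viability assay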
# Description: SANGER: Inhibition of human HOS cell growth in a cell viability assay.
# DU-145 = conditions: Homo sapiens, DU-145
# Description: SANGER: Inhibition of human DU-145 cell growth in a cell viability assay.
# RO82-W-1 = conditions: Homo sapiens, RO82-W-1;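 further: growth inhibition of human RO82-W-1 cells, measured with a cell viability assay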
# Description: SANGER: Inhibition of human RO82-W-1 cell growth in a cell viability assay.
# P12-Ichikawa = conditions: Homo sapiens, P12-Ichikawa
# DMS-273 = conditions: Homo sapiens, DMS-273
# Description: SANGER: Inhibition of human DMS-273 cell growth in a cell viability assay.
# G-402 = conditions: Homo sapiens, G-402
# Description: SANGER: Inhibition of human G-402 cell growth in a cell viability assay.
# NCI-H2291 = conditions: Homo sapiens, NCI-H2291
# Description: SANGER: Inhibition of human NCI-H2291 cell growth in a cell viability assay.
# NCI-H596 = conditions: Homo sapiens, NCI-H596;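 further: growth inhibition of NCI-H596 cells, read out with a cell viability assay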
# Description: SANGER: Inhibition of human NCI-H596 cell growth in a cell viability assay.
Structure (SMILES),IC50 (KYSE-450) [nM],IC50 (Kasumi 1) [nM],IC50 (NCI-H1755) [nM],IC50 (COLO-792) [nM],IC50 (MDA-MB-453) [nM],IC50 (A-431) [nM],IC50 (MDA-MB-415) [nM],IC50 (DoTc2-4510) [nM],IC50 (DK-MG) [nM],IC50 (NCI-H520) [nM],IC50 (MFE-280) [nM],IC50 (MDA-MB-231) [nM],IC50 (NCI-H2170) [nM],IC50 (HEC-1) [nM],IC50 (NCI-H661) [nM],IC50 (LCLC-97TM1) [nM],IC50 (G-361) [nM],IC50 (NCI-H358) [nM],IC50 (CAMA-1) [nM],IC50 (EFO-27) [nM],also measured
Cc1cn(-c2cc(NC(=O)c3ccc(C)c(Nc4nccc(-c5cccnc5)n4)c3)cc(C(F)(F)F)c2)cn1 [NILOTINIB],> 2000,24.1,> 2000,> 2000,> 2000,> 2000,> 2000,> 2000,> 2000,> 2000,> 2000,> 2000,> 2000,> 2000,> 2000,> 2000,> 2000,> 2000,> 2000,> 2000,IC50 (SCC-4): > 2000 nM; IC50 (YAPC): > 2000 nM; IC50 (FaDu): > 2000 nM; IC50 (CAL-27): > 2000 nM; IC50 (COLO-680N): > 2000 nM; IC50 (HCC70): > 2000 nM; IC50 (CHL-1): > 2000 nM; IC50 (HCC38): > 2000 nM; IC50 (OVCAR-3): > 2000 nM; IC50 (HOS): > 2000 nM; IC50 (DU-145): > 2000 nM; IC50 (RO82-W-1): > 2000 nM; IC50 (P12-Ichikawa): > 2000 nM; IC50 (DMS-273): > 2000 nM; IC50 (G-402): > 2000 nM; IC50 (NCI-H2291): > 2000 nM; IC50 (NCI-H596): > 2000 nM
Nc1cccc2c1CN(C1CCC(=O)NC1=O)C2=O (centres undefined) [LENALIDOMIDE],> 5000,> 5000,> 5000,> 5000,> 5000,> 5000,> 5000,> 5000,> 5000,> 5000,> 5000,> 5000,> 5000,> 5000,> 5000,> 5000,> 5000,> 5000,> 5000,> 5000,IC50 (SCC-4): > 5000 nM; IC50 (YAPC): > 5000 nM; IC50 (FaDu): > 5000 nM; IC50 (CAL-27): > 5000 nM; IC50 (COLO-680N): > 5000 nM; IC50 (HCC70): > 5000 nM; IC50 (CHL-1): > 5000 nM; IC50 (HCC38): > 5000 nM; IC50 (OVCAR-3): > 5000 nM; IC50 (HOS): > 5000 nM; IC50 (DU-145): > 5000 nM; IC50 (RO82-W-1): > 5000 nM; IC50 (P12-Ichikawa): > 5000 nM; IC50 (DMS-273): > 5000 nM; IC50 (G-402): > 5000 nM; IC50 (NCI-H2291): > 5000 nM; IC50 (NCI-H596): > 5000 nM
